Measurements published in the CheMixHub ionic liquid set.

Assay: xn = mol fraction of the nth substance listed

CCCCCO + CCCC[n+]1ccn(C)c1.O=S(=O)([N-]S(=O)(=O)C(F)(F)F)C(F)(F)F
298 K, 100 kPa
Conditions | electrical conductivity [S/m] | viscosity [mPa·s]
x2 = 0 | – | 3.486
x2 = 0.5988 | – | 20.14
x2 = 0.6 | 0.5605 | –
x2 = 0.6994 | – | 25.03
x2 = 0.7 | 0.526 | –
x2 = 0.8 | 0.487 | –
x2 = 0.8014 | – | 31.59
x2 = 0.9 | 0.4445 | –
x2 = 0.9023 | – | 39

CCC(=O)[O-].C[NH2+]Cc1ccccc1 + CN(C)C=O
viscosity [mPa·s], 101 kPa
Conditions | 293.15 K | 298.15 K | 303.15 K | 308.15 K | 313.15 K | 318.15 K | 323.15 K | 328.15 K
x1 = 0.006359 | 0.956 | 0.914 | 0.877 | 0.845 | 0.816 | 0.79 | 0.766 | 0.745
x1 = 0.01185 | 0.969 | 0.926 | 0.888 | 0.854 | 0.824 | 0.797 | 0.772 | 0.75
x1 = 0.01701 | 0.989 | 0.944 | 0.902 | 0.866 | 0.835 | 0.807 | 0.781 | 0.758
x1 = 0.02175 | 1.007 | 0.958 | 0.915 | 0.878 | 0.845 | 0.815 | 0.788 | 0.764
x1 = 0.02663 | 1.016 | 0.966 | 0.922 | 0.884 | 0.85 | 0.819 | 0.792 | 0.768
x1 = 0.03255 | 1.045 | 0.991 | 0.944 | 0.903 | 0.866 | 0.834 | 0.805 | 0.779
x1 = 0.0357 | 1.057 | 1.001 | 0.953 | 0.911 | 0.874 | 0.841 | 0.812 | 0.786
x1 = 0.04024 | 1.072 | 1.015 | 0.965 | 0.921 | 0.882 | 0.848 | 0.818 | 0.791

O=S(=O)([N-]S(=O)(=O)C(F)(F)F)C(F)(F)F.[Li+] + O=S(=O)([O-])C(F)(F)F.[Li+] + O
viscosity [mPa·s], 100 kPa
Conditions | x2 = 0, x1 = 0.112 | x2 = 0, x1 = 0.1896 | x2 = 0, x1 = 0.2333 | x2 = 0, x1 = 0.2547 | x2 = 0, x1 = 0.2741
298.15 K | 5.2 | 15.8 | 30.7 | 42.3 | 54.1
308.15 K | 4.3 | 11.5 | 21.5 | 29 | 36.1
318.15 K | 3.4 | 8.6 | 15.8 | 20.9 | 25.5
328.15 K | 2.8 | 6.6 | 12 | 15.6 | 18.7

CN1CCN(C)C1=O + CCCCCC[n+]1ccn(C)c1.[Cl-]
100 kPa
Conditions | viscosity [mPa·s]
288.15 K, x2 = 0 | 2.368
288.15 K, x2 = 0.1007 | 6.33
303.15 K, x2 = 0.1999 | 9.99
308.15 K, x2 = 0 | 1.616
308.15 K, x2 = 0.1999 | 8.56
308.15 K, x2 = 0.3856 | 44.3
318.15 K, x2 = 0.6969 | 182
323.15 K, x2 = 0.1007 | 2.8
323.15 K, x2 = 0.2985 | 12.78
323.15 K, x2 = 0.4985 | 45.7
328.15 K, x2 = 0 | 1.195
333.15 K, x2 = 0.2985 | 9.67

CCCCCCCCCC[n+]1ccn(C)c1.O=S(=O)([N-]S(=O)(=O)C(F)(F)C(F)(F)F)C(F)(F)C(F)(F)F + O
Conditions | electrical conductivity [S/m]
295.15 K, 101 kPa, x2 = 0.14 | 0.11

CS(=O)(=O)[O-].C[N+](C)(CCO)CCO + CCO
viscosity [mPa·s], 101 kPa
Conditions | x1 = 0.099 | x1 = 0.2 | x1 = 0.2984 | x1 = 0.4 | x1 = 0.5005 | x1 = 0.6011 | x1 = 0.7008 | x1 = 0.7993 | x1 = 0.8954 | x1 = 1
298.15 K | 3.21 | 8.15 | 18.5 | 39.7 | 80.7 | 176 | 319 | 556 | 950 | 1495
303.15 K | 2.89 | 7.02 | 15.54 | 32.2 | 63.3 | 133.2 | 236 | 399 | 664 | 1021
308.15 K | 2.61 | 6.13 | 13.16 | 26.5 | 50.5 | 92.7 | 178 | 293 | 476 | 716
313.15 K | 2.32 | 5.38 | 11.4 | 22.1 | 41 | 73.2 | 136.8 | 221 | 350 | 513
318.15 K | 2.13 | 4.76 | 9.92 | 18.6 | 33.7 | 58.6 | 106.9 | 169 | 262 | 378
323.15 K | 1.9 | 4.24 | 8.58 | 15.85 | 28 | 47.6 | 76.5 | 132.1 | 201 | 282
